From patent US20120328569A1, “INHIBITORS OF HEPATITIS C VIRUS NS5B POLYMERASE” (priority 2010, published 2012)

What follows are compounds tested on HCV genotype 1b replicon (assay: HCV replicon assay, cell ELISA with antibody to replicon-encoded NS3/4A (genotype 1b replicon)). Conditions: Hepatitis C virus, 96 h, read-out: 1b IC50(nM), HCV genotype 1b replicon; 96 hours incubation; NS3/4A cell ELISA.
Assay type: cell-based, hepatitis C virus
Procedure, shortened: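 Replicon-harbouring cells carrying neomycin phosphotransferase were incubated 96 h with a compound dilution series without G418. Replication was quantified indirectly by a cell ELISA detecting replicon-encoded NS3/4A. IC50 values were calculated relative to DMSO control with a four-parameter fit.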

SMILES | IC50
CNC(=O)c1c(-c2ccc(F)cc2)oc2cc(N(C)S(C)(=O)=O)c(-c3cccc(-c4cc5c(o4)CCN(C(C)=O)C5)c3)cc12 [Example 517] | 7 nM
CN(C(=O)c1c(-c2ccc(F)cc2)oc2cc(N(C)S(C)(=O)=O)c(-c3cccc(-c4cc5ccccc5[nH]4)c3)cc12)c1ccncc1 [Example 848] | 6440 nM
CNC(=O)c1c(-c2ccc(F)cc2)oc2cc(N(C)S(C)(=O)=O)c(-c3cc(C(=O)O)cc(-c4nc5c(F)cccc5o4)c3)cc12 [Example 650, 3-(4-fluorobenzo[d]oxazol-2-yl)-5-(2-(4-fluorophenyl)-3-(methylcarbamoyl)-6-(N-methylmethylsulfonamido)benzofuran-5-yl)benzoic acid] | 55.7 nM
CNC(=O)c1c(-c2ccc(F)cc2)oc2cc(N(C3COC3)S(C)(=O)=O)c(-c3ccc(OC)c(-c4nc5c(F)cccc5o4)c3)cc12 [Example 720] | 41.6 nM
CNC(=O)c1c(-c2ccc(F)cc2)oc2cc(N(CCF)S(C)(=O)=O)c(-c3cc(F)cc(-c4nc5ncccc5o4)c3)cc12 [Example 873] | 3.4 nM
CNC(=O)c1ccc(-c2cc3c(C(=O)NC)c(-c4ccc(F)cc4)oc3cc2N(C)S(C)(=O)=O)cc1-c1nc2c(F)cccc2o1 [Example 656] | 8.41 nM
CNC(=O)c1c(-c2ccc(F)cc2)oc2cc(N(CCCO)S(C)(=O)=O)c(-c3cc(F)cc(-c4nc5ncccc5o4)c3)cc12 [Example 856] | 4 nM
CNC(=O)c1c(-c2ccc(F)cc2)oc2cc(N(C)S(C)(=O)=O)c(-c3ccc(N4CCNC4=O)c(-c4nc5c(F)cccc5o4)c3)cc12 [Example 484] | 3.31 nM
CNC(=O)c1c(-c2ccc(F)cc2)oc2cc(N(C)S(C)(=O)=O)c(-c3ccc4c(c3)-c3[nH]c5ccccc5c3C(C(C)(C)C)O4)cc12 (stereo not drawn) [Example 590] | 44.1 nM
CNC(=O)c1c(-c2ccc(F)cc2)oc2cc(N(C)S(C)(=O)=O)c(-c3ccc(OC)c(-c4nc5cc(-c6cncnc6)ccc5o4)c3)cc12 [Example 663] | 2.5 nM

Same assay, conditions: Hepatitis C virus, 96 h, read-out: Replicon 1b IC50 (nM), HCV genotype 1b replicon cells, 96 hours incubation, NS3/4A ELISA readout

SMILES | IC50
CNC(=O)c1c(-c2ccc(F)cc2)oc2cc(N(CCN3CCOCC3)S(C)(=O)=O)c(-c3cccc(-c4nc5ncccc5o4)c3)cc12 [Example 397, 2-(4-fluorophenyl)-N-methyl-6-(N-(2-morpholinoethyl)methylsulfonamido)-5-(3-(oxazolo[4,5-b]pyridin-2-yl)phenyl)benzofuran-3-carboxamide] | 3.6 nM
CCc1ccc(-c2cc3c(C(=O)NC)c(-c4ccc(F)cc4)oc3cc2N(C)S(C)(=O)=O)cc1 [Example 110, 5-(4-ethylphenyl)-2-(4-fluorophenyl)-N-methyl-6-[methyl(methylsulfonyl)amino]-1-benzofuran-3-carboxamide] | 90 nM
CNC(=O)c1c(-c2ccc(F)cc2)oc2cc(N(C)S(C)(=O)=O)c(-c3ccc(OC)c(-c4nc5ncccc5o4)c3)cc12 [Example 238] | 2.9 nM
CNC(=O)c1c(-c2ccc(F)cc2)oc2cc(N(C)S(C)(=O)=O)c(-c3cccc(-c4nc5cccc(C)c5o4)c3)cc12 [Example 175] | 13.8 nM
CNC(=O)c1c(-c2ccc(F)cc2)oc2cc(N(C)S(C)(=O)=O)c(-c3cccc(-c4nc5ccc(Br)cc5[nH]4)c3)cc12 [Example 153, 5-[3-(6-bromo-1H-benzimidazol-2-yl)phenyl]-2-(4-fluorophenyl)-N-methyl-6-[methyl (methylsulfonyl)amino]-1-benzofuran-3-carboxamide] | 4 nM
CNC(=O)c1c(-c2ccc(F)cc2)oc2cc(N(C)S(C)(=O)=O)c(-c3cccc(-c4nc5cnccc5s4)c3)cc12 [Example 262] | 5 nM
CNC(=O)c1c(-c2ccc(F)cc2)oc2cc(N(C)S(C)(=O)=O)c(-c3cccc(-c4nc5ccccc5o4)c3OC)cc12 [Example 157] | 22.7 nM
CNC(=O)c1c(-c2ccc(F)cc2)oc2cc(N(C)S(C)(=O)=O)c(-c3ccc(C)c(-c4nc5ncccc5o4)c3)cc12 [Example 208] | 1.8 nM
CNC(=O)c1c(-c2ccc(F)cc2)oc2cc(N(C)S(C)(=O)=O)c(-c3cccc(CNS(C)(=O)=O)c3)cc12 [Example 102, 2-(4-fluorophenyl)-N-methyl-6-[methyl(methylsulfonyl)amino]-5-(3-{[(methylsulfonyl)amino]methyl}phenyl)-1-benzofuran-3-carboxamide] | 7 nM
CNC(=O)c1c(-c2ccc(F)cc2)oc2cc(N(CCCC(C)C)S(C)(=O)=O)c(-c3ccccc3)cc12 [Example 25, 2-(4-fluorophenyl)-N-methyl-6-[(4-methylpentyl) (methylsulfonyl)amino]-5-phenyl-1-benzofuran-3-carboxamide] | 166 nM
CNC(=O)c1c(-c2ccc(F)cc2)oc2cc(N(C)S(C)(=O)=O)c(-c3cccc(-c4nc5ncc(Cl)cc5s4)c3)cc12 [Example 261] | 2 nM
CNC(=O)c1c(-c2ccc(F)cc2)oc2cc(N(C)S(C)(=O)=O)c(-c3ccc(Cl)c(-c4nc5cccnc5o4)c3)cc12 [Example 228] | 3.2 nM
CNC(=O)c1c(-c2ccc(F)cc2)oc2cc(NC(=O)CN(C)c3ccccc3)c(-c3ccccc3)cc12 [Example 73] | 143 nM
CNC(=O)c1c(-c2ccc(F)cc2)oc2cc(N(C)S(C)(=O)=O)c(-c3cccc(C)c3)cc12 [Example 81, 2-(4-fluorophenyl)-N-methyl-6-[methyl (methylsulfonyl)amino]-5-(3-methylphenyl)-1-benzofuran-3-carboxamide] | 117 nM
CNC(=O)c1c(-c2ccc(F)cc2)oc2cc(N(C)S(C)(=O)=O)c(-c3cc(OC)cc(-c4nc5ccc(OC)nc5[nH]4)c3)cc12 [Example 315] | 4.5 nM
CNC(=O)c1c(-c2ccc(F)cc2)oc2cc(N(C)S(C)(=O)=O)c(-c3cccc(-c4nc5ccc(NS(=O)(=O)c6ccccc6)cc5o4)c3)cc12 [Example 284] | 5.3 nM
CNC(=O)c1c(-c2ccc(F)cc2)oc2cc(N(C)S(C)(=O)=O)c(-c3cccc(-c4nc5c(F)cccc5[nH]4)c3)cc12 [Example 304] | 1.3 nM
CNC(=O)c1c(-c2ccc(F)cc2)oc2cc(N(C)S(C)(=O)=O)c(-c3cc(OC)cc(-c4nc5ccccc5o4)c3)cc12 [Example 176] | 3.9 nM

SMILES | IC50
CNC(=O)c1c(-c2ccc(F)cc2)oc2cc(N(CCCCOC(C)=O)S(C)(=O)=O)c(-c3ccccc3)cc12 [Example 30, 4-{[2-(4-fluorophenyl)-3-(methylcarbamoyl)-5-phenyl-1-benzofuran-6-yl] (methylsulfonyl)amino}butyl acetate] | 40 nM
CONC(=O)c1c(-c2ccc(F)cc2)oc2cc(N(C)S(C)(=O)=O)c(-c3ccc(F)cc3)cc12 [Example 96, 2,5-bis(4-fluorophenyl)-N-methoxy-6-[methyl (methylsulfonyl)amino]-1-benzofuran-3-carboxamide] | 1230 nM
CNC(=O)c1c(-c2ccc(F)cc2)oc2cc(NC(C)c3ccccc3)c(-c3ccccc3)cc12 (stereo not drawn) [Example 69, 2-(4-fluorophenyl)-N-methyl-5-phenyl-6-[(1-phenylethyl)amino]-1-benzofuran-3-carboxamide] | > 3000 nM
CNC(=O)c1c(-c2ccc(F)cc2)oc2cc(N(C)S(C)(=O)=O)c(-c3cccc(-c4nc5cncnc5s4)c3)cc12 [Example 273] | 2.2 nM
CNC(=O)c1c(-c2ccc(F)cc2)oc2cc(N(C)S(C)(=O)=O)c(-c3ccc(F)c(-c4nc5c(C)ccnc5[nH]4)c3)cc12 [Example 310] | 1.8 nM
CCOC(=O)N(CCN(C)c1ccccc1)c1cc2oc(-c3ccc(F)cc3)c(C(=O)NC)c2cc1-c1ccccc1 [Example 72, ethyl[2-(4-fluorophenyl)-3-(methylcarbamoyl)-5-phenyl-1-benzofuran-6-yl]{2-[methyl(phenyl)amino]ethyl}carbamate] | 2670 nM
CNC(=O)c1c(-c2ccc(F)cc2)oc2cc(N(C)S(C)(=O)=O)c(-c3cc(OC)cc(-c4cc5cccnc5[nH]4)c3)cc12 [Compound 378] | 1.8 nM
CNC(=O)c1c(-c2ccc(F)cc2)oc2cc(N(C)S(C)(=O)=O)c(-c3cc(Cl)cc(-c4nc5ccccc5o4)c3)cc12 [Example 178] | 7 nM
CNC(=O)c1c(-c2ccc(F)cc2)oc2cc(N(C)S(C)(=O)=O)c(-c3cccc(-c4nc5cc(F)ccc5o4)c3)cc12 [Example 158] | 4.8 nM
CNC(=O)c1c(-c2ccc(F)cc2)oc2cc(N(C)S(C)(=O)=O)c(-c3cccc(-c4nc5ccc(C)cc5[nH]4)c3)cc12 [Example 154, 2-(4-fluorophenyl)-N-methyl-5-[3-(6-methyl-1H-benzimidazol-2-yl)phenyl]-6-[methyl (methylsulfonyl)amino]-1-benzofuran-3-carboxamide] | 4 nM
CNC(=O)c1c(-c2ccc(F)cc2)oc2cc(N(C)S(C)(=O)=O)c(-c3cccc(-c4nc5ccccc5[nH]4)c3)cc12 [Example 151, 5-[3-(1H-benzimidazol-2-yl)phenyl]-2-(4-fluorophenyl)-N-methyl-6-[methyl (methylsulfonyl)amino]-1-benzofuran-3-carboxamide] | 5 nM
CNC(=O)c1c(-c2ccc(F)cc2)oc2cc(N(C)S(C)(=O)=O)c(-c3cccc(-c4cc5ncccc5[nH]4)c3)cc12 [Compound 368] | 1.6 nM
CCC(C)CN(c1cc2oc(-c3ccc(F)cc3)c(C(=O)NC)c2cc1-c1ccccc1)S(C)(=O)=O (stereo not drawn) [Example 19, 2-(4-fluorophenyl)-N-methyl-6-[(2-methylbutyl) (methylsulfonyl)amino]-5-phenyl-1-benzofuran-3-carboxamide] | 227 nM
CNC(=O)c1c(-c2ccc(F)cc2)oc2cc(N(C)S(C)(=O)=O)c(-c3cccc(-c4cc5ccc(OCc6ccccc6)cc5[nH]4)c3)cc12 [Example 360] | 30.5 nM
CNC(=O)c1c(-c2ccc(F)cc2)oc2cc(N(C)S(C)(=O)=O)c(-c3cc(F)c(F)c(-c4nc5ncccc5o4)c3)cc12 [Example 243] | 1.3 nM
CNC(=O)c1c(-c2ccc(F)cc2)oc2cc(N(C)S(C)(=O)=O)c(-c3cc(F)cc(-c4nc5c(C)cccc5o4)c3)cc12 [Example 165] | 4.7 nM
CNC(=O)c1c(-c2ccc(F)cc2)oc2cc(N(C)S(C)(=O)=O)c(-c3cccc(-c4nc5ccncc5[nH]4)c3)cc12 [Example 333] | 6 nM
